“Also recorded” adds a separate entry of the source.
Tests used:
MAPK signaling pathway = assay: Western blot, MAPK pathway; format: cell-based, human; details: for MAPK pathway (pERK1/2, pCDK2): Example 8, 24 hours, actives 3-5 μmol/L, inactives 30-50 μmol/L
Method: For Western blot analysis, cell lysates are harvested by addition of RIPA lysis buffers containing 25 mM Tris.HCl pH 7.6, 150 mM NaCl, 1% NP-40, 1% sodium deoxycholate, 0.1% SDS, 10 mM EDTA, 1 mM sodium orthovanadate, 0.1 mM sodium molybdate, 1 mM phenylmethylsulfonyl fluoride, 20 μg/mL aprotinin, and 5 μg/mL leupeptin. The cell lysates are harvested and processed as described in Madhunapantula, S. V. et al., Cancer Res, 2007, 67:3626-36. Treatment conditions: 1-1.5×10^6 melanoma cells are plated in 100 mm culture dishes, 48 h later, treated with leelamine (3-6 μmol/L) for 3 to 24 hours. Protein lysates are collected for Western blotting. The blots are probed with antibodies according to each supplier's recommendations: antibodies to total Akt, phospho-Akt (Ser473), total PRAS40, phospho-PRAS40 (Thr246), total CREB, phospho-CREB (Ser133), phospho-p70 S6 kinase (Thr389), total Erk1/2, phospho-Erk1/2 (Thr202/Tyr 204), total CDK2, phospho-CDK2 (Thr160), phospho-Rb (Ser807/811), total Stat, phospho-Stat1 (Tyr701), Phospho-Stat-2(Tyr690), Phospho-Stat3(Ser727), phospho-Stat3(Tyr705) and cleaved PARP from Cell Signaling Technology (Danvers, Mass.); total PRAS40 from Invitrogen (Carlsbad, Calif.); cyclin D1, Bcl-2, α-enolase and secondary antibodies conjugated with horseradish peroxidase from Santa Cruz Biotechnology (Santa Cruz, Calif.). Immunoblots are developed using the enhanced chemiluminescence (ECL) detection system (Thermo Fisher Scientific, Rockford, Ill.). Intensity of protein bands is quantified using ImageJ software.
For Western blot analysis, 1×10^6 melanoma cells are plated in 100 mm culture dishes, 48 hours later, treated with empty liposomes or Nanolipolee-007 (3-6 μmol/L) for 3 to 24 hours. Protein lysates collected for Western blotting. The cell lysates are harvested in an RIPA lysis buffer containing protease and phosphatases inhibitors (Pierce Biotechnology, Rockford, Ill.). Blots are probed with antibodies according to each supplier's recommendations: antibodies to total Akt, phospho-Akt (Ser473), total PRAS40, phospho-PRAS40 (Thr246), total Bad, pBad (Ser 112) total Erk1/2, phospho-Erk1/2 (Thr202/Tyr 204), total CDK2, phospho-CDK2 (Thr160), phospho-Rb (Ser807/811), total Stat, phospho-Stat3 (Tyr705), caspase-3 and cleaved PARP from Cell Signaling Technology (Danvers, Mass.); total PRAS40 from Invitrogen (Carlsbad, Calif.); cyclin D1, α-enolase and secondary antibodies conjugated with horseradish peroxidase from Santa Cruz Biotechnology (Santa Cruz, Calif.). Immunoblots are developed using the enhanced chemiluminescence (ECL) detection system (Thermo Fisher Scientific, Rockford, Ill.). Intensity of protein bands is quantified using ImageJ software.
Cell lysates are harvested by addition of RIPA lysis buffers containing 25 mM Tris*HCl pH 7.6, 150 mM NaCl, 1% NP-40, 1% sodium deoxycholate, 0.1% SDS, 10 mM EDTA, 1 mM sodium orthovanadate, 0.1 mM sodium molybdate, 1 mM phenylmethylsulfonyl fluoride, 20 μg/mL aprotinin, and 5 μg/mL leupeptin. The cell lysates are harvested and processed as described. […] Protein lysates collected for Western blotting. […] Intensity of protein bands is quantified using ImageJ software. […]

[1] = system: Breast (MCF-7) cancer cell line; assay: MTS assay viability IC50, MCF-7; format: cell-based; details: Homo sapiens, MCF7; Table 5
Method: Dehydroabietylamine, its N-substituted derivatives and the corresponding dihydroabietylamine and its N-substituted derivatives are tested for their capability to inhibit cell growth of cancer cell lines, including melanoma (UACC 903, 1205Lu), breast (MCF-7), fibrosarcoma (HT-1080), colon (Caco-2), and prostate (PC-3) cancer cell lines. Viability and IC50 of normal human fibroblasts and cell lines from melanoma and other malignancies following treatment with all the agents are measured using the MTS assay (Promega, Madison, Wis.). Human fibroblast FF2441 cells, metastatic melanoma cell lines 1205 Lu and UACC 903 as well as cancer cell lines representing sarcoma (HT-1080), prostate (PC-3, LNCaP), breast (MCF-7) and lung (A-549) are maintained in DMEM (Invitrogen, Carlsbad, Calif.) supplemented with 10% FBS (Hyclone, Logan, Utah) in a 5% CO2 atmosphere, humidified 37° C. incubator. 5×10^3 cells per well in 100 μL of media are plated and grown in a 96-well plate for 48 to 72 h and treated with either DMSO vehicle control or 0.62 to 40 μmol/L for 24, 48 or 72 h. IC50 values for each compound in […] for respective cell lines are measured from three independent experiments using GraphPad Prism version 4.01 (GraphPad Software, La Jolla, Calif.). FIG. 52 is a graph showing IC50 values for leelamine and compounds 4a, 4b and 5a in treated fibroblasts (FF2441) compared to melanoma cells. Selectivity ratio here is defined as ratio of activity against fibroblasts compared to activity against melanoma cells. Leelamine is relatively selective with a ratio of >6 and >4 for UACC903 and 1205Lu melanoma cells. The selectivity ratio of compound 4a is ˜4 and ˜3 for UACC903 and 1205Lu and for compound 4b is ˜4 for both cell lines. The selectivity ratio of compound 5a is ˜4 for UACC903 and >2 for 1205Lu cells.

SMILES	MAPK pathway (pERK1/2, pCDK2) (MAPK signaling pathway)	IC50 [1] [µM]	MAP kinase pathway signaling (MAPK signaling pathway; 3 to 6 μmol/L for 3 to 24 hours, UACC 903 and 1205 Lu)
CC(C)c1ccc2c(c1)CCC1[C@](C)(CNC(=O)C(F)(F)F)CCC[C@]21C (stereo partly drawn) [Compound 5a, N-{[(1R,4aS)-1,4a-dimethyl-7-(propan-2-yl)-1,2,3,4,4a,9,10,10a-octahydrophenanthren-1-yl]methyl}-2,2,2-trifluoroacetamide]	Dose dependent reduction of pERK1/2 and pCDK2	4.39 ± 0.71	
CC(C)c1ccc2c(c1)CCC1[C@](C)(CN)CCC[C@]21C (stereo partly drawn) [Leelamine, [(1R,4aS)-1,4a-dimethyl-7-(propan-2-yl)-1,2,3,4,4a,9,10,10a-octahydrophenanthren-1-yl]methanamine]	blocks activation of ERK1/2; also recorded: Dose dependent reduction of pERK1/2 and pCDK2	6.42 ± 0.52	decrease activity
CC(C)C1=CC2=CCC3[C@](C)(CN)CCC[C@]3(C)C2CC1 (stereo partly drawn) [Compound 4a, {[(1R,4aR)-1,4a-dimethyl-7-(propan-2-yl)-1,2,3,4,4a,4b,5,6,10,10a-decahydrophenanthren-1-yl]methyl}amine]	Dose dependent reduction of pERK1/2 and pCDK2	8.69 ± 1.81	
CC(C)C1=CC2=CCC3[C@](C)(CCC[C@@]3(C)C(=O)O)C2CC1 (stereo partly drawn) [Abietic acid, (1R,4aR)-1,4a-dimethyl-7-(propan-2-yl)-1,2,3,4,4a,4b,5,6,10,10a-decahydrophenanthrene-1-carboxylic acid, reference compound]	unable to affect	> 100	

Source: US9839618B2, “Compositions and methods relating to proliferative diseases” (The Penn State Research Foundation, priority 2010, dated 2017)
